What was measured:
mice [1] = experiment: Rotarod test in mice; assay type: in vivo; conditions: for Animals That Fell from Rotating Rod: 30 min before test; for Time before Animals Fell: max 60 s, mean ± SD
Description: Mice were trained on the rotarod apparatus (May Commat RR0711, Ankara, Turkey; rod diameter: 2 cm) for 3 consecutive days. During each training session, animals were placed for 3 min on the rotating rod (24 rpm, constant speed) with unlimited trials. The experiment was performed 24 h after the last training session. On the test day, mice were injected with studied compounds and, 30 min later, placed on the rotarod. The criterion of motor impairments was the inability of the animal to remain on the rotating rod for 60 s.

[2] = target: T1, human serotonin 5-HT2A receptor (Homo sapiens, UniProt P28223); assay type: cell-based
T1 construct: host or cells: CHO-K1
Description: (§1) Tested and reference compounds were dissolved in dimethyl sulfoxide (DMSO) at a concentration of 10 mM. Serial dilutions were prepared in a 96-well microplate in assay buffer, and 8 to 10 concentrations were tested. […] The assay was executed according to the previously described protocol [45]. After thawing, cells were transferred to assay buffer (DMEM/HAM’s F12 with 0.1% protease-free BSA) and centrifuged. The cell pellet was resuspended in assay buffer, and coelenterazine h was added at final concentrations of 5 µM. The cell suspension was incubated at 16 °C (or 21 °C), protected from light with constant agitation for 16 h (or 4 h), and then diluted with assay buffer to the concentration of 100,000 cells/mL (or 250,000 cells/mL). After 1 h of incubation, 50 µL of the cell’s suspension was dispensed using automatic injectors built into the radiometric and luminescence plate counter MicroBeta2 LumiJET (PerkinElmer, Waltham, NA, USA) into white opaque 96-well microplates preloaded with test compounds. Immediate light emission generated following calcium mobilization was recorded for 30 s. In antagonist mode, after 25–30 min of incubation, the reference agonist was added to the above assay mix, and light emission was re-recorded. […] IC50 and EC50 values were calculated.

5-HT1A receptors = tested on: 5-HT1A receptors; set-up: method as in doi:10.1016/j.molstruc.2022.134585; conditions: cited from earlier work
mice [3] = experiment: Catalepsy bar test in mice; assay type: in vivo
Description: Catalepsy was assessed using the bar method described by Ueki et al. with minor modifications [48, 49]. The front paws of the mice were placed on a cylindrical metal bar located 4 cm above the tabletop’s surface, while the hind paws remained on the tabletop. The time in which the animal held both paws on the bar was measured at 30, 60, and 120 min after the administration of the tested compound, with a maximum measurement time of 60 s. Each of the measurements consisted of placing the animal’s paws on the bar three times unless the mouse was on it for 60 s; then, no further trial was performed.
The minimum cataleptogenic dose was defined as the lowest dose inducing a mean catalepsy score of ≥1 at 30, 60, or 120 min post-treatment. The tested compound was administered ip at the dose range of 5–20 mg/kg.

mice [4] = experiment: Amphetamine-induced hyperlocomotion test in mice; assay type: in vivo; conditions: doses 0.3–2.5 mg/kg ip, amphetamine 2.5 mg/kg sc
Description: Locomotor activity was recorded in actometers separately for each mouse. After 30 min of adaptation, the number of crossings of photo beams was measured during 60 min. […] MK-801 (0.2 mg/kg, ip) was administered 15 min before the experiment, while amphetamine (2.5 mg/kg) was administered subcutaneously (sc) 30 min before the experiment. […] Values are expressed as means ± SD, n = 8–10 mice per group. Statistical analysis: one-way ANOVA (Newman–Keuls post hoc), * p < 0.05, ** p < 0.01, *** p < 0.001.
The test was performed according to the method described by Carlsson et al.. The mobility of the animals was measured in actometers, i.e., in plastic Opto M3 cages (22 × 12 × 13 cm) connected to a computer with MultiDevice Software v.1.30 (Columbus Instruments, Columbus, OH, USA). The experimental cages were equipped with infrared sources on one side and sensors receiving the emitted rays on the other side of the cage. The crossing of each beam of infrared rays was classified as motor activity. The animals were placed individually in experimental cages immediately after administration of the tested compound, 30 min before the start of the test, to adapt to the new conditions and exclude the occurrence of hyperactivity caused by the change of the environment. Spontaneous locomotor activity was measured every 5 min for 60 min. Mice received two injections: of the tested compound or reference substance (30 min before the test, ip) and of amphetamine (2.5 mg/kg, 30 min before the test, sc) or MK-801 (0.2 mg/kg, 15 min before the test, ip). Control groups received an injection of saline and amphetamine or MK-801, or two injections of saline, respectively. Olanzapine was used as a reference compound.

5-HT2A receptors = tested on: 5-HT2A receptors; set-up: method as in doi:10.1016/j.molstruc.2022.134585; conditions: cited from earlier work
mice [5] = experiment: Spontaneous locomotor activity in mice; assay type: in vivo
Description: The locomotor activity of mice was measured as previously described using the same apparatus as described in paragraph 4.5. Each mouse was placed individually in a cage for a 30 min habituation period (directly after administration of the studied compound), and then the number of photobeams crossings was recorded (ambulation). Locomotor activity was evaluated every 1 or 5 min for 1–60 min depending on the observation period in behavioral tests (60 min for the hyperlocomotion test, 30 min for the marble burying test, and 1 min for the four-plate test). The cages were disinfected with an odorless disinfection solution after each mouse.

5-HT7 receptors = tested on: 5-HT7 receptors; set-up: method as in doi:10.1016/j.molstruc.2022.134585; conditions: cited from earlier work
mice [6] = experiment: Four-plate test in mice; assay type: in vivo
Description: Figure 2 The effect of JJGW08 on the number of punished crossings in the four-plate test. Mice were placed in the apparatus, and after a 15 s adaptation period, each mouse crossing from one plate to another was punished with an electric shock. JJGW08 was administered intraperitoneally (ip) 30 min before the test. The control group received 0.9% NaCl solution (ip). Values are expressed as means ± SD, n = 8–10 mice per group. Statistical analysis: one-way ANOVA (Newman–Keuls post hoc), ** p < 0.01.
The four-plate test was performed on mice according to the previously described method. Mice were placed individually in the four-plate apparatus (Panlab, Barcelona, Spain). After a 15 s habituation period, each mouse that crossed from one plate to another (two limbs on one plate, two on another) was punished by an electric shock (0.8 mA, 0.5 s). The number of punished crossings was calculated during the 60 s of the test.

human D2 receptor = target: T2, human D2 receptor (Homo sapiens, UniProt P14416); experiment: Functional assay (aequorin, calcium mobilization) in CHO-K1 cells, D2 receptor; assay type: cell-based
T2 construct: host or cells: CHO-K1
T2 sequence (P14416 whole entry): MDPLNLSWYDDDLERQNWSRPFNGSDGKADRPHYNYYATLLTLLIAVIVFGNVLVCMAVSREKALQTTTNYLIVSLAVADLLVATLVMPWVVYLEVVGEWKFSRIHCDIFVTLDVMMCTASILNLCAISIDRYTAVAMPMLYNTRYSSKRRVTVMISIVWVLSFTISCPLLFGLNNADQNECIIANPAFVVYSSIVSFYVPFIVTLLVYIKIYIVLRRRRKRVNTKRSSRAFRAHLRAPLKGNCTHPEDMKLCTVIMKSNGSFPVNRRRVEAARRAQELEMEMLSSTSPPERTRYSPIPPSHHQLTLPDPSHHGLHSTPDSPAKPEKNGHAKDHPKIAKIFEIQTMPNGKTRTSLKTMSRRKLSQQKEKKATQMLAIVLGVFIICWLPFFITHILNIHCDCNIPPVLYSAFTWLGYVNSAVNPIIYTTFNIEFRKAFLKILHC
Description: as §1

[7] = D2, antagonist mode, 30 nM apomorphine as reference agonist

T1 sequence (P28223 whole entry): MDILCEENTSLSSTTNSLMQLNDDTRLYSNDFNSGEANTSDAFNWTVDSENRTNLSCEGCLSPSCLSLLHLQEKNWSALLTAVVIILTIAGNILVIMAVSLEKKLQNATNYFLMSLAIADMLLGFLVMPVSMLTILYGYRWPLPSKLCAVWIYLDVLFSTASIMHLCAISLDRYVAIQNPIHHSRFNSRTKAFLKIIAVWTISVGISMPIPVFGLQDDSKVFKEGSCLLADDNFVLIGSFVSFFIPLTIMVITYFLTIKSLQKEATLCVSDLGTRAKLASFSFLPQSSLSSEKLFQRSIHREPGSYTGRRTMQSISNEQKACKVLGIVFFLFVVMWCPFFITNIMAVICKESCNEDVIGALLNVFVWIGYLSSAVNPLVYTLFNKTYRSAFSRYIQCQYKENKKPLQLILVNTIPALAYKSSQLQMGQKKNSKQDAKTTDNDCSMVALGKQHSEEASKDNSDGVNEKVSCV

SMILES: COc1ccccc1N1CCN(CCCCCOc2ccccc2C(N)=O)CC1.Cl [JJGW08, 2-{5-[4-(2-metoksyfenylo)piperazin-1-ylo]pentoxy}benzamide hydrochloride]
- TD50 relative to the lowest antipsychotic-like dose (mice [1]): 121 fold
- Animals That Fell from Rotating Rod (mice [1]; 10 mg/kg ip): 2/8
- Time before Animals Fell (mice [1]; 10 mg/kg ip): 58 ± 4 s
- Animals That Fell from Rotating Rod (mice [1]; 20 mg/kg ip): 4/8
- Time before Animals Fell (mice [1]; 20 mg/kg ip): 41 ± 24 s
- Animals That Fell from Rotating Rod (mice [1]; 30 mg/kg ip): 6/8
- Time before Animals Fell (mice [1]; 30 mg/kg ip): 20 ± 25 s
- TD50 (mice [1]; ip, dose at which 50% of the animals could not stay on the rotating rod): 18 (11–29) mg/kg
- Agonist Mode Emax% [2]: 21%
- Agonist Mode pEC50 ± Range [2]: 5.9 ± 0.1
- Antagonist Mode Emax% [2]: 5%
- Antagonist Mode pIC50 ± Range [2]: 5.7 ± 0.4
- antagonistic properties (in words) [2]: very weak antagonistic properties
- Kb ([2]; read-out: Antagonist Mode Kb): 290 nM
- affinity (in words) (5-HT1A receptors): high affinity
- Mean Score (catalepsy) (mice [3]; 5 mg/kg ip, 30 min): 0.0
- Mean Score (catalepsy) (mice [3]; 5 mg/kg ip, 60 min): 0.2
- Mean Score (catalepsy) (mice [3]; 5 mg/kg ip, 120 min): 0.2
- Mean Score (catalepsy) (mice [3]; 10 mg/kg ip, 30 min): 0.7
- Mean Score (catalepsy) (mice [3]; 10 mg/kg ip, 60 min): 0.9
- Mean Score (catalepsy) (mice [3]; 10 mg/kg ip, 120 min): 1.4
- cataleptogenic dose relative to the lowest antipsychotic-like dose (mice [3]; 10 mg/kg vs. 0.15 mg/kg): 67 fold
- Mean Score (catalepsy) (mice [3]; 20 mg/kg ip, 30 min): 2.1
- Mean Score (catalepsy) (mice [3]; 20 mg/kg ip, 60 min): 2.1
- Mean Score (catalepsy) (mice [3]; 20 mg/kg ip, 120 min): 1.5
- minimum (lowest) cataleptogenic dose (mice [3]; ip, lowest dose with mean catalepsy score ≥1 at 30, 60 or 120 min): 10 mg/kg
- reduction of amphetamine-induced hyperlocomotion (mice [4]): 52–82%
- affinity (in words) (5-HT2A receptors): moderate affinity
- Number of Crossings (mice [5]; 0.15 mg/kg ip, 1 min session): 38
- Number of Crossings (mice [5]; 0.15 mg/kg ip, 30 min session): 547
- Number of Crossings (mice [5]; 0.15 mg/kg ip, 60 min session): 1346
- Number of Crossings (mice [5]; 0.3 mg/kg ip, 1 min session): 46
- Number of Crossings (mice [5]; 0.3 mg/kg ip, 30 min session): 1027
- Number of Crossings (mice [5]; 0.3 mg/kg ip, 60 min session): 1588
- Number of Crossings (mice [5]; 0.625 mg/kg ip, 1 min session): 27
- Number of Crossings (mice [5]; 0.625 mg/kg ip, 30 min session): 634
- Number of Crossings (mice [5]; 0.625 mg/kg ip, 60 min session): 1671
- Number of Crossings (mice [5]; 1.25 mg/kg ip, 1 min session): 22
- Number of Crossings (mice [5]; 1.25 mg/kg ip, 30 min session): 1181
- Number of Crossings (mice [5]; 1.25 mg/kg ip, 60 min session): 1769
- Number of Crossings (mice [5]; 2.5 mg/kg ip, 1 min session): 19
- Number of Crossings (mice [5]; 2.5 mg/kg ip, 30 min session): 437
- Number of Crossings (mice [5]; 2.5 mg/kg ip, 60 min session): 1450
- effect on locomotor activity (in words) (mice [5]; 0.15–2.5 mg/kg ip, 60-min and 30-min sessions): did not affect locomotor activity
- affinity (in words) (5-HT7 receptors): moderate affinity
- increase in the number of punished crossings (mice [6]; 0.3 mg/kg ip): 54%
- increase in the number of punished crossings (mice [6]; 0.625 mg/kg ip): 49%
- Agonist Mode Emax% (human D2 receptor; D2, agonist mode): 13%
- Antagonist Mode Emax% (human D2 receptor; [7]): 0%
- Antagonist Mode pIC50 ± Range (human D2 receptor; [7]): 7.9 ± 0.0
- Kb (human D2 receptor; D2, antagonist mode, Cheng equation): 2 nM
- antagonistic properties (in words) (human D2 receptor; D2 functional assay): strong antagonistic properties

Source: publication PMC9781916, “Antipsychotic- and Anxiolytic-like Properties of a Multimodal Compound JJGW08 in Rodents” (International Journal of Molecular Sciences, 2022)
